Measured values published in patent US12011474B2, “Composition comprising a mixture of molecules extracted from Chrysanthellum indicum, Cynara scolymus and Lycium barbarum and use to act on carbohydrate and/or fat metabolism” (VALBIOTIS, priority 2015, dated 2024).

System: db/db mice
Assay: Fasting blood glucose in db/db mice
Type: in vivo
Conditions: same db/db model, separate experiment with younger mice, control group 414 mg/dL
Excerpt: The experiments were done on db/db mice.
The experimental time was 9 weeks with a “Run-in” of 1 week followed by 8 weeks of supplementation with the plant extracts and a composition X. The male mice were 10 weeks old at the beginning of treatment.
The experimental assessments in particular pertained to: • The measurement of the serous lipids (total cholesterol, LDL cholesterol, triglycerides); • The evolution of the blood glucose during an oral sensitivity test to insulin. This test consisted of an intraperitoneal injection of insulin (2 U/kg) on an empty stomach. The evolution of the blood glucose in response to the insulin injection was measured in the tail by biopsy just before the injection (t0), then after 30, 60, 90 and 120 minutes. The area under the curve (AUC) was calculated. A decrease in the AUC reflects a better response to the insulin injection, and therefore improved insulin sensitivity. Conversely, an increase in the AUC reflects a lower quality sensitivity to the insulin, and therefore insulin resistance; • The measurement of the fasting blood glucose.
The evaluations presented were done just before the supplementation (t=0) and at the end of supplementation (t=8 weeks).

`CN(C)C(=N)N=C(N)N` [metformin] was tested. Which Fasting blood glucose did it give?
The Fasting blood glucose was 463 mg/d L.

What about the “Increase of fasting blood glucose versus control group” value of the same compound?
The value was 11%.
